In paper PMC11192437, “Molecular and structural basis of oligopeptide recognition by the Ami transporter system in pneumococci” (PLOS Pathogens, 2024):

Columns and labels:
[1] = molecular target: AliC (residues 24–655), oligopeptide-binding lipoprotein of the Ami system, without the lipobox segment (Streptococcus pneumoniae); assay: crystal structure; AliC in the open conformation, no peptide; 0.1 M Bis-Tris pH 6.5, 25% PEG3350; 2.38 Å; domain-swapped dimer
[2] = molecular target: AliC (residues 24–655), oligopeptide-binding lipoprotein of the Ami system, without the lipobox segment (Streptococcus pneumoniae); assay: AUC; sedimentation velocity, 20 mM Tris–HCl pH 7.5, 20°C, 4.1 μM protein, c(s) distribution (SEDFIT)
AliD [3] = conditions: peptide derived from Prevotella species; cited from earlier work
AliD [4] = assay: Microscale thermophoresis (MST) peptide binding to AliD; set-up: species or system Streptococcus pneumoniae; conditions: 20 nM RED-NHS-labeled AliD, peptide 7.63x10^-6–0.125 mM in PBS, 25°C
Protocol: To investigate the conformational changes occurring in the Ami permease OBPs upon ligand binding, we synthesized specific peptides (Tables 1 and S2) previously reported to be substrates of these proteins. […] To verify specific binding of peptides to OBPs, binding of peptide 1 (FPPQSV), which is the natural substrate of AliD, and peptide 2 (AIQSEKARKHN) was measured to AliD by microscale thermophoresis (MST) (see methods). […] The crystal structure of the AliD:peptide 1 complex was obtained by co-crystallization (see Materials and Methods) at 2.18 Å resolution (Fig 3A).
Binding of peptides to heterologously expressed AliD was measured by microscale thermophoresis (MST). […] Analyzed peptides (1: FPPQSV and 2: AIQSEKARKHN) were diluted in PBS. […] Samples were loaded into standard capillaries (NanoTemper Technologies) and measured using the Monolith NT.115 machine (NanoTemper Technologies). […] Data of three independently conducted experiments were analyzed using the Mo.Affinity Analysis software version 2.3 from NanoTemper Technologies.
Supplementary file ppat.1011883.s017.tif: S6 Fig Peptide 1 structure in the AliD:peptide 1 complex. (A) Binding of peptide 1 and 2 to heterologously expressed AliD as analyzed by microscale thermophoresis (MST). […] Samples were measured using the Monolith NT.115 (NanoTemper Technologies) at 40% LED power and medium MST power at 25° C. […]

AliD [5] = conditions: peptide derived from Prevotella species; cited from earlier work; remark: listed apart in the source
AliB = conditions: S2 Table; previously reported to bind AliB; ref 10 (table adapted from Nasher et al; 2018); cited from earlier work
From the text: Supplement ppat.1011883.s002.docx, table 1 | column: OBP

[6] = molecular target: AliD (residues 28–652), oligopeptide-binding lipoprotein of the Ami system, without the lipobox segment (Streptococcus pneumoniae); assay: MST; 20 nM RED-NHS-labelled AliD and unlabelled peptides (7.63x10^-6–0.125 mM) both in solution, PBS, 25°C, 40% LED power, medium MST power, Monolith NT.115; three independent experiments

With “AliC (residues 24–655), oligopeptide-binding lipoprotein of the Ami system, without the lipobox segment (natural protein)” the stoichiometry N [1] was 2 and the stoichiometry N [2] was 2.

In the case of “FPPQSV [Peptide 1, FPPQSV; Ribosome-associated GTPase EngA (Prevotella species)]”, the “Gene expression change when bound by AliD” value (AliD [3]) is listed as “significant changes in gene expression”, the “Binding to AliD (in words)” value (AliD [4]) is listed as “concentration dependent binding” and the “Colonization when bound by AliD” value (AliD [5]) is listed as “enhanced colonization”.

For “PIVGGHEGAGV [Peptide 3, …; NDMA-dependent alcohol dehydrogenase (multispecies)]”, the “Corresponding OBP” value (AliB) is listed as “AliB”.

Molecule Peptide 1 (FPPQSV) has a Kd [6] of 3.44 µM.

In the case of “VMVKGPGPGREST [Peptide 4, …; 30S ribosomal protein S11 (multispecies)]”, the “Corresponding OBP” value (AliB) is listed as “AliB”.

Work on AIQSEKARKHN [Peptide 2 (…)] yielded a Kd [6] of 14.4 µM.
